According to patent US8426345B2, “Method of drug design” (Alchemia Limited, priority 2005, dated 2013):

Biological target: T1, Human SST5 somatostatin receptor (Homo sapiens, UniProt P35346)
T1 construct: expressed in transfected cells; host or cells: HEK-293 EBNA cells (membranes)
Assay: Filter plate radio-ligand binding assay for SST5 receptor ([125I]SST-14 displacement)
Conditions: 3P library; for % SST5 radio-ligand binding displaced at conc 0.25: conc 0.25 μM; for % SST5 radio-ligand binding displaced at conc 1.0: conc 1.0 μM; for % SST5 radio-ligand binding displaced at conc 0.5: conc 0.5 μM; for % SST5 radio-ligand binding displaced at conc 10: conc 10 μM; for % SST5 radio-ligand binding displaced at conc 0.001: conc 0.001 μM; for % SST5 radio-ligand binding displaced at conc 0.10: conc 0.10 μM

T1 sequence (P35346 whole entry): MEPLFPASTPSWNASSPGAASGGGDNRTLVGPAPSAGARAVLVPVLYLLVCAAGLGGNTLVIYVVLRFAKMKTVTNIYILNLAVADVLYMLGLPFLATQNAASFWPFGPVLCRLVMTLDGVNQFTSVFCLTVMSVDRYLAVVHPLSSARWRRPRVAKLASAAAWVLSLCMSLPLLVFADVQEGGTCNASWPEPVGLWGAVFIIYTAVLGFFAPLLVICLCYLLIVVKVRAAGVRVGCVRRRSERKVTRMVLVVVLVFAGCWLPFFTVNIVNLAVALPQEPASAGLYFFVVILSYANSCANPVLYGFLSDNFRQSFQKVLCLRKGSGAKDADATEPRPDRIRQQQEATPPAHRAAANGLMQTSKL

In the case of NCCC(=O)NC1C(OCc2ccc3ccccc3c2)OC(COCc2ccc3ccccc3c2)C(O)C1OCc1ccc2ccccc2c1 (mixture of isomers) [Compound 73], the “% SST5 radio-ligand binding displaced at conc 0.25” value is reported as “− (% SST5 radio-ligand binding displaced at cone (μM) −<40%)” and the “% SST5 radio-ligand binding displaced at conc 1.0” value is reported as “+ (% SST5 radio-ligand binding displaced at cone (μM) 60>+>40%)”.
NCCC(=O)NC1C(OCc2ccc3ccccc3c2)OC(COCc2ccccc2)C(O)C1OCc1ccc2ccccc2c1 (mixture of isomers) [Compound 74] was tested, and the “% SST5 radio-ligand binding displaced at conc 0.25” value was “− (% SST5 radio-ligand binding displaced at cone (μM) −<40%)” and the “% SST5 radio-ligand binding displaced at conc 1.0” value was “++ (% SST5 radio-ligand binding displaced at conc (μM) >60%)”.
In the case of NCCC(=O)NC1C(OCc2ccc3ccccc3c2)OC(COCc2ccc(Cl)cc2)C(O)C1OCc1ccc2ccccc2c1 (mixture of isomers) [Compound 75], the “% SST5 radio-ligand binding displaced at conc 0.25” value is reported as “− (% SST5 radio-ligand binding displaced at cone (μM) −<40%)” and the “% SST5 radio-ligand binding displaced at conc 1.0” value is reported as “++ (% SST5 radio-ligand binding displaced at conc (μM) >60%)”.
NCCC(=O)NC1C(OCc2ccc3ccccc3c2)OC(COCc2ccc3ccccc3c2)C(O)C1OCc1ccccc1 (mixture of isomers) [Compound 76] was tested, and the “% SST5 radio-ligand binding displaced at conc 0.25” value was “− (% SST5 radio-ligand binding displaced at cone (μM) −<40%)” and the “% SST5 radio-ligand binding displaced at conc 1.0” value was “++ (% SST5 radio-ligand binding displaced at conc (μM) >60%)”.
In the case of NCCC(=O)NC1C(OCc2ccc3ccccc3c2)OC(COCc2ccccc2)C(O)C1OCc1ccccc1 (mixture of isomers) [Compound 77], the “% SST5 radio-ligand binding displaced at conc 0.25” value is reported as “− (% SST5 radio-ligand binding displaced at cone (μM) −<40%)” and the “% SST5 radio-ligand binding displaced at conc 1.0” value is reported as “++ (% SST5 radio-ligand binding displaced at conc (μM) >60%)”.
For NCCC(=O)NC1C(OCc2ccc3ccccc3c2)OC(COCc2ccc(Cl)cc2)C(O)C1OCc1ccccc1 (mixture of isomers) [Compound 78], the “% SST5 radio-ligand binding displaced at conc 0.25” value was “+ (% SST5 radio-ligand binding displaced at cone (μM) 60>+>40%)” and the “% SST5 radio-ligand binding displaced at conc 1.0” value was “++ (% SST5 radio-ligand binding displaced at conc (μM) >60%)”.
With COC1C(O)C(COCc2ccccc2)OC(OCc2ccc3ccccc3c2)C1NC(=O)CCN (mixture of isomers) [Compound 93] the “% SST5 radio-ligand binding displaced at conc 0.25” value was “− (% SST5 radio-ligand binding displaced at cone (μM) −<40%)” and the “% SST5 radio-ligand binding displaced at conc 1.0” value was “+ (% SST5 radio-ligand binding displaced at cone (μM) 60>+>40%)”.
With COC1C(O)C(COCc2ccc3ccccc3c2)OC(OCc2ccc3ccccc3c2)C1NC(=O)CCN (mixture of isomers) [Compound 97] the “% SST5 radio-ligand binding displaced at conc 0.25” value was “− (% SST5 radio-ligand binding displaced at cone (μM) −<40%)” and the “% SST5 radio-ligand binding displaced at conc 1.0” value was “+ (% SST5 radio-ligand binding displaced at cone (μM) 60>+>40%)”.
COCC1OC(OCc2ccc3ccccc3c2)C(NC(=O)CCCN)C(OCc2ccccc2)C1O (mixture of isomers) [Compound 120] was tested, and the “% SST5 radio-ligand binding displaced at conc 0.5” value was “+ (% SST5 radio-ligand binding displaced at cone (μM) 60>+>40%)” and the “% SST5 radio-ligand binding displaced at conc 10” value was “++ (% SST5 radio-ligand binding displaced at conc (μM) >60%)”.
With COC1C(O)C(COCc2ccc(-c3ccccc3)cc2)OC(OCc2ccc3ccccc3c2)C1NC(=O)CCCN (mixture of isomers) [Compound 121] the “% SST5 radio-ligand binding displaced at conc 0.5” value was “+ (% SST5 radio-ligand binding displaced at cone (μM) 60>+>40%)” and the “% SST5 radio-ligand binding displaced at conc 10” value was “+ (% SST5 radio-ligand binding displaced at cone (μM) 60>+>40%)”.
For COC1C(O)C(COCc2ccc3ccccc3c2)OC(OCc2ccc3ccccc3c2)C1NC(=O)CCCN (mixture of isomers) [Compound 122], the “% SST5 radio-ligand binding displaced at conc 0.5” value was “++ (% SST5 radio-ligand binding displaced at conc (μM) >60%)” and the “% SST5 radio-ligand binding displaced at conc 10” value was “++ (% SST5 radio-ligand binding displaced at conc (μM) >60%)”.
With COC1C(O)C(COCc2ccccc2)OC(OCc2ccc3ccccc3c2)C1NC(=O)CCCN (mixture of isomers) [Compound 123] the “% SST5 radio-ligand binding displaced at conc 0.5” value was “− (% SST5 radio-ligand binding displaced at cone (μM) −<40%)” and the “% SST5 radio-ligand binding displaced at conc 10” value was “− (% SST5 radio-ligand binding displaced at cone (μM) −<40%)”.
In the case of COC1C(O)C(COCc2ccc(Cl)cc2)OC(OCc2ccc3ccccc3c2)C1NC(=O)CCCN (mixture of isomers) [Compound 124], the “% SST5 radio-ligand binding displaced at conc 0.5” value is reported as “− (% SST5 radio-ligand binding displaced at cone (μM) −<40%)” and the “% SST5 radio-ligand binding displaced at conc 10” value is reported as “+ (% SST5 radio-ligand binding displaced at cone (μM) 60>+>40%)”.
For COC1C(O)C(COCc2cccc(O)c2)OC(OCc2ccc3ccccc3c2)C1NC(=O)CCCN (mixture of isomers) [Compound 125], the “% SST5 radio-ligand binding displaced at conc 0.5” value was “− (% SST5 radio-ligand binding displaced at cone (μM) −<40%)” and the “% SST5 radio-ligand binding displaced at conc 10” value was “+ (% SST5 radio-ligand binding displaced at cone (μM) 60>+>40%)”.
COCC1OC(OCc2ccc3ccccc3c2)C(NC(=O)CCCN)C(OCc2ccccc2)C1O (mixture of isomers) [Compound 126] was tested, and the “% SST5 radio-ligand binding displaced at conc 0.001” value was “− (% SST5 radio-ligand binding displaced at cone (μM) −<40%)”, the “% SST5 radio-ligand binding displaced at conc 0.10” value was “− (% SST5 radio-ligand binding displaced at cone (μM) −<40%)” and the “% SST5 radio-ligand binding displaced at conc 0.5” value was “+ (% SST5 radio-ligand binding displaced at cone (μM) 60>+>40%)”. For the same compound, the “% SST5 radio-ligand binding displaced at conc 1.0” value was “+ (% SST5 radio-ligand binding displaced at cone (μM) 60>+>40%)” and the “% SST5 radio-ligand binding displaced at conc 10” value was “++ (% SST5 radio-ligand binding displaced at conc (μM) >60%)”.
With COCC1OC(OCc2ccc3ccccc3c2)C(NC(=O)CCCN)C(OCc2ccc(Cl)cc2)C1O (mixture of isomers) [Compound 127] the “% SST5 radio-ligand binding displaced at conc 0.001” value was “− (% SST5 radio-ligand binding displaced at cone (μM) −<40%)”, the “% SST5 radio-ligand binding displaced at conc 0.10” value was “− (% SST5 radio-ligand binding displaced at cone (μM) −<40%)” and the “% SST5 radio-ligand binding displaced at conc 0.5” value was “++ (% SST5 radio-ligand binding displaced at conc (μM) >60%)”. For the same compound, the “% SST5 radio-ligand binding displaced at conc 1.0” value was “++ (% SST5 radio-ligand binding displaced at conc (μM) >60%)” and the “% SST5 radio-ligand binding displaced at conc 10” value was “++ (% SST5 radio-ligand binding displaced at conc (μM) >60%)”.
COCC1OC(OCc2ccc3ccccc3c2)C(NC(=O)CCCN)C(OCc2ccc(-c3ccccc3)cc2)C1O (mixture of isomers) [Compound 128] was tested, and the “% SST5 radio-ligand binding displaced at conc 0.001” value was “− (% SST5 radio-ligand binding displaced at cone (μM) −<40%)”, the “% SST5 radio-ligand binding displaced at conc 0.10” value was “− (% SST5 radio-ligand binding displaced at cone (μM) −<40%)” and the “% SST5 radio-ligand binding displaced at conc 0.25” value was “− (% SST5 radio-ligand binding displaced at cone (μM) −<40%)”. The “% SST5 radio-ligand binding displaced at conc 0.5” value was “++ (% SST5 radio-ligand binding displaced at conc (μM) >60%)”, the “% SST5 radio-ligand binding displaced at conc 1.0” value was “+ (% SST5 radio-ligand binding displaced at cone (μM) 60>+>40%)” and the “% SST5 radio-ligand binding displaced at conc 10” value was “++ (% SST5 radio-ligand binding displaced at conc (μM) >60%)”.
With COCC1OC(OCc2ccc3ccccc3c2)C(NC(=O)CCCN)C(OCc2ccc3ccccc3c2)C1O (mixture of isomers) [Compound 129] the “% SST5 radio-ligand binding displaced at conc 0.001” value was “− (% SST5 radio-ligand binding displaced at cone (μM) −<40%)”, the “% SST5 radio-ligand binding displaced at conc 0.10” value was “+ (% SST5 radio-ligand binding displaced at cone (μM) 60>+>40%)” and the “% SST5 radio-ligand binding displaced at conc 0.25” value was “− (% SST5 radio-ligand binding displaced at cone (μM) −<40%)”. The “% SST5 radio-ligand binding displaced at conc 1.0” value was “++ (% SST5 radio-ligand binding displaced at conc (μM) >60%)” and the “% SST5 radio-ligand binding displaced at conc 10” value was “++ (% SST5 radio-ligand binding displaced at conc (μM) >60%)”.
COCC1OC(OCc2ccc3ccccc3c2)C(NC(=O)CCCN)C(OCc2cccc(O)c2)C1O (mixture of isomers) [Compound 130] was tested, and the “% SST5 radio-ligand binding displaced at conc 10” value was “++ (% SST5 radio-ligand binding displaced at conc (μM) >60%)”.
In the case of COCC1OC(OCc2ccc3ccccc3c2)C(NC(=O)CCCN)C(OCc2ccc(-c3ccccc3)cc2)C1O (mixture of isomers) [Compound 131], the “% SST5 radio-ligand binding displaced at conc 10” value is reported as “++ (% SST5 radio-ligand binding displaced at conc (μM) >60%)”.
For COCC1OC(OCc2ccc3ccccc3c2)C(NC(=O)CCCN)C(OCc2ccc3ccccc3c2)C1O (mixture of isomers) [Compound 132], the “% SST5 radio-ligand binding displaced at conc 10” value was “++ (% SST5 radio-ligand binding displaced at conc (μM) >60%)”.
COCC1OC(OCc2ccc3ccccc3c2)C(NC(=O)CCCN)C(OCc2ccc(Cl)cc2)C1O (mixture of isomers) [Compound 133] was tested, and the “% SST5 radio-ligand binding displaced at conc 10” value was “++ (% SST5 radio-ligand binding displaced at conc (μM) >60%)”.
In the case of COCC1OC(OCc2ccc(Cl)cc2)C(NC(=O)CN)C(OCc2ccccc2)C1O (mixture of isomers) [Compound 160], the “% SST5 radio-ligand binding displaced at conc 0.001” value is reported as “− (% SST5 radio-ligand binding displaced at cone (μM) −<40%)”, the “% SST5 radio-ligand binding displaced at conc 0.10” value is reported as “− (% SST5 radio-ligand binding displaced at cone (μM) −<40%)” and the “% SST5 radio-ligand binding displaced at conc 0.5” value is reported as “− (% SST5 radio-ligand binding displaced at cone (μM) −<40%)”. The “% SST5 radio-ligand binding displaced at conc 1.0” value was “− (% SST5 radio-ligand binding displaced at cone (μM) −<40%)” and the “% SST5 radio-ligand binding displaced at conc 10” value was “− (% SST5 radio-ligand binding displaced at cone (μM) −<40%)”.
In the case of COCC1OC(OCc2ccc(Cl)cc2)C(NC(=O)CN)C(OCc2ccc(Cl)cc2)C1O (mixture of isomers) [Compound 161], the “% SST5 radio-ligand binding displaced at conc 0.001” value is reported as “− (% SST5 radio-ligand binding displaced at cone (μM) −<40%)”, the “% SST5 radio-ligand binding displaced at conc 0.10” value is reported as “− (% SST5 radio-ligand binding displaced at cone (μM) −<40%)” and the “% SST5 radio-ligand binding displaced at conc 0.5” value is reported as “− (% SST5 radio-ligand binding displaced at cone (μM) −<40%)”. The “% SST5 radio-ligand binding displaced at conc 1.0” value was “− (% SST5 radio-ligand binding displaced at cone (μM) −<40%)” and the “% SST5 radio-ligand binding displaced at conc 10” value was “++ (% SST5 radio-ligand binding displaced at conc (μM) >60%)”.
In the case of COCC1OC(OCc2ccc(Cl)cc2)C(NC(=O)CN)C(OCc2ccc(-c3ccccc3)cc2)C1O (mixture of isomers) [Compound 162], the “% SST5 radio-ligand binding displaced at conc 0.001” value is reported as “− (% SST5 radio-ligand binding displaced at cone (μM) −<40%)”, the “% SST5 radio-ligand binding displaced at conc 0.10” value is reported as “− (% SST5 radio-ligand binding displaced at cone (μM) −<40%)” and the “% SST5 radio-ligand binding displaced at conc 0.25” value is reported as “− (% SST5 radio-ligand binding displaced at cone (μM) −<40%)”. For the same compound, the “% SST5 radio-ligand binding displaced at conc 0.5” value was “− (% SST5 radio-ligand binding displaced at cone (μM) −<40%)”, the “% SST5 radio-ligand binding displaced at conc 1.0” value was “− (% SST5 radio-ligand binding displaced at cone (μM) −<40%)” and the “% SST5 radio-ligand binding displaced at conc 10” value was “+ (% SST5 radio-ligand binding displaced at cone (μM) 60>+>40%)”.
